Experimental data as given in PMC1142193 (Evidence-based Complementary and Alternative Medicine, 2005).
“Also recorded” adds a separate entry of the source.

Molecular target: SARS-CoV 3CL^Pro (Severe acute respiratory syndrome coronavirus, UniProt P0C6U8)
Assay: biochemical
Type: biochemical
Conditions: for IC50: IC50, inhibition of SARS 3CL^Pro activity

Structure (SMILES)	Inhibition of 3CL^Pro activity (in words)	Inhibition of 3CL^Pro activity at concentrations up to 100 µM (in words)	IC50 [µM]
Cn1c(=O)c2c(ncn2C)n(C)c1=O [Caffeine, caffeine, reference compound]	did not inhibit; also recorded: did not influence 3CL^Pro activity	not able to inhibit	
Oc1cc(O)c2c(c1)O[C@H](c1ccc(O)c(O)c1)[C@H](O)C2 [EC, epicatechin]	did not inhibit	not able to inhibit	≥ 100
O=C(O[C@@H]1Cc2c(O)cc(O)cc2O[C@@H]1c1ccc(O)c(O)c1)c1cc(O)c(O)c(O)c1 [ECg, epicatechin gallate]	did not inhibit	not able to inhibit	≥ 100
Oc1cc(O)c2c(c1)O[C@H](c1cc(O)c(O)c(O)c1)[C@H](O)C2 [EGC, epigallocatechin]	did not inhibit	not able to inhibit	≥ 100
O=c1c(O)cc([C@H]2Oc3cc(O)cc(O)c3C[C@H]2O)cc2c([C@H]3Oc4cc(O)cc(O)c4C[C@H]3O)cc(O)c(O)c12 [TF1, Theaflavin]	found to inhibit 3CL^Pro		56
Cn1c(=O)c2[nH]cnc2n(C)c1=O [Theophylline, theophylline, reference compound]	did not inhibit; also recorded: did not influence 3CL^Pro activity	not able to inhibit	
